Like-named read-outs stand apart in the source and are kept apart here.
What was measured:
[1] = tested on: p52 (NF-kB2) nuclear translocation in HeLa cells; assay: p52 nuclear translocation assay (non-classical NF-kB signaling), high content imaging; type: cell-based; conditions: Homo sapiens, HeLa, 5 h, 100 ng/mL anti-lymphotoxin beta receptor antibody for 5 hours, read-out: p52 HeLa Transloc Assay (IC50)
Summary of the method: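 HeLa cells in 10% FBS medium were treated with compound (0.2% DMSO final), then stimulated 5 h with 100 ng/mL anti-lymphotoxin beta receptor antibody. After fixation, cells were immunostained for p52 (2 ug/mL antibody) with DRAQ5 nuclear stain and imaged by high-content imaging. IC50 in µM was derived from the nuclear/cytoplasmic signal ratio.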

[2] = tested on: REL-A (p65) nuclear translocation in HeLa cells; assay: REL-A nuclear translocation assay (classical NF-kB signaling), high content imaging; type: cell-based; conditions: Homo sapiens, HeLa, compounds 4.5 hours, then 10 ng/mL TNF-α for 30 minutes, read-out: REL-A HeLa Transloc Assay (IC50)
Summary of the method: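 HeLa cells in 10% FBS medium preincubated with compounds (0.2% DMSO final) for 4.5 hours, then stimulated with 10 ng/mL TNF-α for 30 minutes. Fixed cells stained with 400 ng/mL anti-REL-A antibody, Alexa488 secondary and DRAQ5; translocation quantified by imaging as nuclear to cytoplasmic signal ratio.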

[3] = molecular target: nuclear factor-kappa B (NF-kB)-inducing kinase (NIK) (Homo sapiens (Human), UniProt Q99558); assay: NIK Enzyme Inhibition Assay (Transcreener ADP fluorescence polarization); type: biochemical; conditions: read-out: NIK ADP-FP (Ki uM)
Summary of the method: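 Fluorescence-polarization ADP detection (tracer displacement, 633 nm excitation) read after EDTA/Brij quench. Reaction: 0.2-1 nM insect-cell-derived NIK, 10 uM ATP, HEPES pH 7.2 with MgCl2 and DTT, 1% DMSO, 1-3.5 h with compounds.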

[4] = purified NIK 0.2-1 nM, 10 uM ATP, Morrison's quadratic equation

Chain of nuclear factor-kappa B (NF-kB)-inducing kinase (NIK) (Q99558 whole entry): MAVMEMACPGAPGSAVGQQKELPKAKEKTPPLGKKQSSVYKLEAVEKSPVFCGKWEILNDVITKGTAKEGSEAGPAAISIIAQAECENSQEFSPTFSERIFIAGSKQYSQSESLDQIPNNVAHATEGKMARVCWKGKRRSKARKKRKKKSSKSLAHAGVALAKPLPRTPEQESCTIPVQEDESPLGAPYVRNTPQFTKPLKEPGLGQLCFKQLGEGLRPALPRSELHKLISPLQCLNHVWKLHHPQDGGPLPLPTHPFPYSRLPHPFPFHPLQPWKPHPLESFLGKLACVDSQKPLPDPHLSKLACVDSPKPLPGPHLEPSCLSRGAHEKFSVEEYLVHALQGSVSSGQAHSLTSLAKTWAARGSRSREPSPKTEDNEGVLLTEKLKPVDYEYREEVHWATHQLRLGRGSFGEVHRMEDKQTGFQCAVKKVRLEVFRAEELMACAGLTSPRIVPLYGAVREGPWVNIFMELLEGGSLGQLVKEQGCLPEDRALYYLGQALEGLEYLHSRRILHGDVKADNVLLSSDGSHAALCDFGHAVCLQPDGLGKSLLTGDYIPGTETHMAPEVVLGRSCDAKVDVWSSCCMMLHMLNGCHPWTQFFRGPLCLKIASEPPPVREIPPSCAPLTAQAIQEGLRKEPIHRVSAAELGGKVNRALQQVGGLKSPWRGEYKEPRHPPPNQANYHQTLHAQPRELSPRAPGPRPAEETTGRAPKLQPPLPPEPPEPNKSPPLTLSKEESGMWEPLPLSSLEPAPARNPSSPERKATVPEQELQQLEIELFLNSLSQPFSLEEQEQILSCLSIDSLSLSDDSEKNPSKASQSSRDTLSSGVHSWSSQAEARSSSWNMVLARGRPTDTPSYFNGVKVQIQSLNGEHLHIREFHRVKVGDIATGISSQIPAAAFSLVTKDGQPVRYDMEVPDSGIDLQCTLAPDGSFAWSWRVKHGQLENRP

SMILES	IC50 [1] [nM]	IC50 [2] [µM]	Ki [3] [µM]	Ki [3, 4] [µM]
Cc1cc([C@](C)(O)C#Cc2ccc3c(c2)-c2nc(C(N)=O)c(C(F)(F)F)n2C2CC3C2)no1	511	15.1	0.0005	–
CN1CC[C@@](O)(C#Cc2ccc3c(c2)-c2nc(C(N)=O)cn2C2CC3C2)C1=O	1500	20	0.0012	–
CC(C)(O)C#Cc1cc2c(cc1F)OCCn1c-2nc(C(N)=O)c1C(=O)NCC#N	77	20	–	0.0004
CC(O)(C#Cc1cc2c(cc1F)OCCc1sc(C(N)=O)nc1-2)CO (stereo not drawn)	1100	20	–	0.003
Cn1nccc1C(O)c1c(C(N)=O)nc2n1CCOc1cc(F)c(C#CC(C)(C)O)cc1-2 (racemic)	2400	> 20	–	0.0015
NC(=O)c1cn2c(n1)-c1cc(C#CC3(O)CCc4cccnc43)c(F)cc1OCC2 (racemic)	1500	> 20	–	0.0009
CC(C)(O)C#Cc1ccc2c(c1)-c1nc(C(N)=O)c(-c3nc(C4CC4)n[nH]3)n1CCO2 (racemic)	594	> 20	–	0.0024
NC(=O)c1cn2c(n1)-c1cc(C#CC3(O)CCNC3=O)c(F)cc1OCC2 (racemic)	16000	> 20	–	0.0032
CC(C)(O)C#Cc1cc2c(cc1F)C1CC(C1)n1c-2nc(C(N)=O)c1C1CN(C(=O)OC(C)(C)C)C1 (racemic)	1800	> 20	–	0.0077
Cc1cc([C@](C)(O)C#Cc2ccc3c(c2)-c2nc(C(N)=O)c(C(F)(F)F)n2CCO3)no1 (racemic)	4500	> 20	–	0.0049
Cc1nc([C@](C)(O)C#Cc2cc3c(cc2F)C2CC(C2)n2c-3nc(C(N)=O)c2C(F)(F)F)no1 (racemic)	2300	> 20	–	0.0072
CNC(=O)c1c(C(N)=O)nc2n1C1CC(C1)c1ccc(C#C[C@@](C)(O)c3cc(C)on3)cc1-2 (racemic)	1300	1.8	–	0.00061
Cc1cc([C@](C)(O)C#Cc2ccc3c(c2)-c2nc(C(N)=O)c(C(=O)NC4CCOCC4)n2C2CC3C2)no1 (racemic)	284	20	–	0.0011
Cc1cc([C@](C)(O)C#Cc2ccc3c(c2)-c2nc(C(N)=O)c(CC4(C)COC4)n2C2CC3C2)no1 (racemic)	740	> 20	–	0.0012
Cc1cc([C@](C)(O)C#Cc2cc3c(cc2F)OCCn2c-3nc(C(N)=O)c2-c2cnn(CC(C)(C)O)c2)no1 (racemic)	1800	> 20	–	0.00127
Cc1cc([C@](C)(O)C#Cc2cc3c(cc2F)C2CC(C2)n2c-3nc(C(N)=O)c2-c2cnn(CC(C)(C)O)c2)no1 (racemic)	1900	> 20	–	0.00071
CNC(=O)c1c(C(N)=O)nc2n1C1CC(C1)c1cc(F)c(C#CC(C)(C)O)cc1-2 (racemic)	358	> 20	–	0.0022
CC(O)(C#Cc1cc2c(cc1F)OCCn1cc(C(N)=O)nc1-2)CF (racemic) [Example 75]	3800	20	–	0.008
CC(C)(O)C#Cc1ccc2c(c1)-c1nc(C(N)=O)c(C(F)(F)F)n1C1CC2C1 (racemic) [Example 206]	4400	> 20	–	0.026
CNC(=O)c1c(C(N)=O)nn2c1CCOc1ccc(C#C[C@]3(O)CCN(C)C3=O)cc1-2 (racemic) [Example 514]	543	> 20	–	0.0012
Cc1cc([C@](C)(O)C#Cc2cc3c(cc2F)OCCn2cc(C(N)=O)nc2-3)no1 [Example 6, 8-fluoro-9-[(R)-3-hydroxy-3-(5-methyl-isoxazol-3-yl)-but-1-ynyl]-4,5-dihydro-6-oxa-1,3a-diaza-benzo[e]azulene-2-car-boxylic acid amide]	135	20	–	0.0003
